Data published in ChEMBL document CHEMBL1909046, “DrugMatrix in vitro pharmacology data”.

Tests used:
[1] = biological target: Vascular endothelial growth factor receptor 1 (Homo sapiens, UniProt P17948); format: cell-based; conditions: huvec; further: in other assays of this panel Not Active means under 50% inhibition at 10 µM
[2] = biological target: Sodium-dependent dopamine transporter (Homo sapiens, UniProt Q01959); test: DRUGMATRIX: Dopamine Transporter radioligand binding (ligand: [125I] RTI-55); format: cell membranes, CHO-K1, Membrane; conditions: Not Active = under 50% inhibition at 10 µM; for Ki: read-out: Ki
Sodium-dependent dopamine transporter, sequence (Q01959 whole entry): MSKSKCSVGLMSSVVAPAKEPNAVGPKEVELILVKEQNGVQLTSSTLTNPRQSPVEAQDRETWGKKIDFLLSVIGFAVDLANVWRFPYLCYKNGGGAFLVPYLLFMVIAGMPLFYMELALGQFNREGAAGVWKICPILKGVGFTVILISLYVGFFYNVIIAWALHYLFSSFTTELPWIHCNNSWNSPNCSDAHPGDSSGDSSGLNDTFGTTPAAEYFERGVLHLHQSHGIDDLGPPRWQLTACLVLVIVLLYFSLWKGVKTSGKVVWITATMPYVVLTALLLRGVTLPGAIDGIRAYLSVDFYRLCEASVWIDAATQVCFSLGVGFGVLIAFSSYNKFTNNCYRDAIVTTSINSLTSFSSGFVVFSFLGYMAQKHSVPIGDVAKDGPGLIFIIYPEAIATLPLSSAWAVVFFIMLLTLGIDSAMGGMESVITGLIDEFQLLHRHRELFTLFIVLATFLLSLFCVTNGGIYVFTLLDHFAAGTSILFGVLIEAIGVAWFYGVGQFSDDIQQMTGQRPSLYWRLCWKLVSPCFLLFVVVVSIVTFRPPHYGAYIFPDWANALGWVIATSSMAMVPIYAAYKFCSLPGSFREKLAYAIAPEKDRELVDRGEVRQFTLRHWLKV

Endothelin-1 receptor = biological target: T1, Endothelin-1 receptor (Homo sapiens, UniProt P25101); format: cell membranes, CHO-K1, Membrane; further: in other assays of this panel Not Active means under 50% inhibition at 10 µM
T1 sequence (P25101 whole entry): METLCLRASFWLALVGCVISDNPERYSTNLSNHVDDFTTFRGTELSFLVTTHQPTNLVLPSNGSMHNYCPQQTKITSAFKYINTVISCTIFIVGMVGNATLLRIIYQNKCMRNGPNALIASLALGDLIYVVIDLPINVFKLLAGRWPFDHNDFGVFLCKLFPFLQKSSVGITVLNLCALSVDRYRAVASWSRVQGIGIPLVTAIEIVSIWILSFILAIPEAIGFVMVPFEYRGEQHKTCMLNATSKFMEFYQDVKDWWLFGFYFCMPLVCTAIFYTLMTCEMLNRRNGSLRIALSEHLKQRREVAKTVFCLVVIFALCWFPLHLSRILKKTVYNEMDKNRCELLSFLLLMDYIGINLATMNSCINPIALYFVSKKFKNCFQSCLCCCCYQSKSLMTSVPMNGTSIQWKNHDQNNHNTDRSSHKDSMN

Melanocortin receptor 4 = Melanocortin receptor 4 (Homo sapiens, UniProt P32245); format: cell membranes, HEK293, Membrane; further: in other assays of this panel Not Active means under 50% inhibition at 10 µM
Melanocortin receptor 4, sequence (P32245 whole entry): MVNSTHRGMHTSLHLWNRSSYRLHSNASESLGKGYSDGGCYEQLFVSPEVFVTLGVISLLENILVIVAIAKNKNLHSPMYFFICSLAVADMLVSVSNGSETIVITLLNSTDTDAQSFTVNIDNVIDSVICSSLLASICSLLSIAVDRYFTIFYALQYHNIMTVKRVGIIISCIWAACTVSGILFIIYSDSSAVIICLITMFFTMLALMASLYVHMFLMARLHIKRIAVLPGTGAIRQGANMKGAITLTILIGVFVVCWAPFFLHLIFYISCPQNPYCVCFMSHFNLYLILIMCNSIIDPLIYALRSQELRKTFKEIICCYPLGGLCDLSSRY

Acetylcholinesterase = Acetylcholinesterase (Homo sapiens, UniProt P22303); test: DRUGMATRIX: Acetylcholinesterase enzyme inhibition (substrate: acetylthiocholine); format: cell-based, HEK293; conditions: Not Active = under 50% inhibition at 10 µM
Acetylcholinesterase, sequence (P22303 whole entry): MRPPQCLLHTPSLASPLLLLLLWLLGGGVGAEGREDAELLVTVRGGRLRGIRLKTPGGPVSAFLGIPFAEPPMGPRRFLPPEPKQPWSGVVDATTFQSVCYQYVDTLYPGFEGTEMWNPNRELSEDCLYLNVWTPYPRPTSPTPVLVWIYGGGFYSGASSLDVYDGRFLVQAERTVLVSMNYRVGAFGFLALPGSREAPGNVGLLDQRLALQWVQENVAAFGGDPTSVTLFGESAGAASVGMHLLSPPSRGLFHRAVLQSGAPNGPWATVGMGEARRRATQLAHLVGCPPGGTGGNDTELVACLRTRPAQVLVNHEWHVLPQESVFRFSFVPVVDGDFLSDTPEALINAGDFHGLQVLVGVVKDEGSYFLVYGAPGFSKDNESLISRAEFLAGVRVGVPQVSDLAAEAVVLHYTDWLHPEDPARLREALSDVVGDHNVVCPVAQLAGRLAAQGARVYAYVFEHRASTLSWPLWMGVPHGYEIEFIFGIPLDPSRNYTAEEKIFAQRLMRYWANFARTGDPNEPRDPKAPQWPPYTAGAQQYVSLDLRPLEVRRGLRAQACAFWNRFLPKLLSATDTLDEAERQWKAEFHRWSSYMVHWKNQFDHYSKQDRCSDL

Estrogen receptor beta = Estrogen receptor beta (Homo sapiens, UniProt Q92731); conditions: sf9; further: in other assays of this panel Not Active means under 50% inhibition at 10 µM
Estrogen receptor beta, sequence (Q92731 whole entry): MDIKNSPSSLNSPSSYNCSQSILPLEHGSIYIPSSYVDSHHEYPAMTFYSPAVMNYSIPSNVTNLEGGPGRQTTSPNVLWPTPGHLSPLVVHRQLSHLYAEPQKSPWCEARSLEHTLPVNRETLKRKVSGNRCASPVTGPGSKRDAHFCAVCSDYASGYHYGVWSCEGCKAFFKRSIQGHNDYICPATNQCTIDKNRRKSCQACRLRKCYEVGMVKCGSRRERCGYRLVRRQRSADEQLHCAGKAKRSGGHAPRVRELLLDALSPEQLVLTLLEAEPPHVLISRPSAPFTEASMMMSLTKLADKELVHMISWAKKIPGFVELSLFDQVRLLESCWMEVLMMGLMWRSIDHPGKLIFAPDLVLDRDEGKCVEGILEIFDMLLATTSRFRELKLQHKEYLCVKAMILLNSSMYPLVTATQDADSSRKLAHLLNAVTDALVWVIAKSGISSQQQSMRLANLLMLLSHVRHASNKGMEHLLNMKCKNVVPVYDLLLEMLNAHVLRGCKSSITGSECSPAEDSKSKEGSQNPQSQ

Vascular endothelial growth factor receptor 1, sequence (P17948 whole entry): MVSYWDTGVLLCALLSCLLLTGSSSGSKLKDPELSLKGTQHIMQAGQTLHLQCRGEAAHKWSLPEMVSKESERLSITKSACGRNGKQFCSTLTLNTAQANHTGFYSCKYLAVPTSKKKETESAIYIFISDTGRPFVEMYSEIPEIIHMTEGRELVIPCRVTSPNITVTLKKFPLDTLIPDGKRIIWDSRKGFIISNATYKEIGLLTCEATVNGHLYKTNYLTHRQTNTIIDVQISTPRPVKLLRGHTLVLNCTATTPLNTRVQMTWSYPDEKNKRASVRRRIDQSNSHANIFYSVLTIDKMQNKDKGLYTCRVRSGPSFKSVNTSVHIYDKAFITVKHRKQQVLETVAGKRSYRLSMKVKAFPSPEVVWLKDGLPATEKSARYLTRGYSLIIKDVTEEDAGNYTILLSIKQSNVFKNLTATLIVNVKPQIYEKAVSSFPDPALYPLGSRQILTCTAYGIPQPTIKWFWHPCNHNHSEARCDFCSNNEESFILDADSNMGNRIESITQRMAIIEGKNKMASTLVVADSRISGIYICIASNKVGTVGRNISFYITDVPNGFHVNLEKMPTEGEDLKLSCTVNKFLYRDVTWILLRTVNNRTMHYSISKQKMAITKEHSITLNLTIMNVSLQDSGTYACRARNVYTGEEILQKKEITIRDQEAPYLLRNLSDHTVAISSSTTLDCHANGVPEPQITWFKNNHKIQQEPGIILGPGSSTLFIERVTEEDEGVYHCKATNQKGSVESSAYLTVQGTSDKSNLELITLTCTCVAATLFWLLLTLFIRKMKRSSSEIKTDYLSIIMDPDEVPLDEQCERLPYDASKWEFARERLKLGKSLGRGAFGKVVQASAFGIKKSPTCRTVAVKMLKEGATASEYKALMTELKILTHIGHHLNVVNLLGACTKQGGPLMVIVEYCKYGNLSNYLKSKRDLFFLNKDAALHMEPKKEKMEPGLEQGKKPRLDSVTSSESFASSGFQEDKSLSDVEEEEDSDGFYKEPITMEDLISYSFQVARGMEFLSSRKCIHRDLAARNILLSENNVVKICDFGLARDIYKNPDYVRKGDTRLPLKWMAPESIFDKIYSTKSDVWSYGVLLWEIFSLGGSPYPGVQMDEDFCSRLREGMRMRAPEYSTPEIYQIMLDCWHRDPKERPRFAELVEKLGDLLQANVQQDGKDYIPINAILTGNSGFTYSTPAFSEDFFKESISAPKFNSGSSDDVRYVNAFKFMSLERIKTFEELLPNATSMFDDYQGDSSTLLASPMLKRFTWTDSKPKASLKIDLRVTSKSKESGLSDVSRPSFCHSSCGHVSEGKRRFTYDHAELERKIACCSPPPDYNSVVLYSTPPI

Row | Structure (SMILES) | IC50 [1] | IC50 ([2]; read-out: IC50) | Ki [2] | IC50 (Endothelin-1 receptor; cho-k1) | IC50 (Melanocortin receptor 4; hek293) | IC50 (Acetylcholinesterase; hek293) | IC50 (Estrogen receptor beta) | IC50 ([2]; cho-k1) | IC50 (Endothelin-1 receptor; read-out: IC50) | Ki (Endothelin-1 receptor; read-out: Ki) | IC50 (Melanocortin receptor 4; read-out: IC50) | Ki (Melanocortin receptor 4; read-out: Ki) | IC50 (Acetylcholinesterase; read-out: IC50)
1 | CC(C)(C)NC(=O)[C@@H]1C[C@@H]2CCCC[C@@H]2CN1C[C@@H](O)[C@H](Cc1ccccc1)NC(=O)[C@H](CC(N)=O)NC(=O)c1ccc2ccccc2n1 | Not Active | 35.1 µM | 27.9 µM | Not Active | Not Active | Not Active | Not Active |  |  |  |  |  | 
2 | CC(=O)[C@@]1(O)CC[C@H]2[C@@H]3C[C@H](C)C4=CC(=O)CC[C@]4(C)[C@H]3CC[C@@]21C | Not Active |  |  | Not Active | Not Active | Not Active | Not Active | Not Active |  |  |  |  | 
3 | N[C@@H](Cc1ccc(N(CCCl)CCCl)cc1)C(=O)O | Not Active |  |  | Not Active | Not Active | Not Active | Not Active | Not Active |  |  |  |  | 
4 | CCCCc1oc2ccccc2c1C(=O)c1cc(I)c(OCCN(CC)CC)c(I)c1 [AMIODARONE] | Not Active |  |  |  |  | Not Active | Not Active |  | 26.3 µM | 16.2 µM |  |  | 
5 | OCCN(CCO)c1nc(N2CCCCC2)c2nc(N(CCO)CCO)nc(N3CCCCC3)c2n1 [DIPYRIDAMOLE] | Not Active |  |  | Not Active | Not Active | Not Active | Not Active | Not Active |  |  |  |  | 
6 | Cc1oncc1C(=O)Nc1ccc(C(F)(F)F)cc1 [LEFLUNOMIDE] | Not Active | 2.88 µM | 2.29 µM | Not Active | Not Active | Not Active | Not Active |  |  |  |  |  | 
7 | c1ccc([C@H]2CN3CCSC3=N2)cc1 [LEVAMISOLE] | Not Active |  |  | Not Active | Not Active | Not Active | Not Active | Not Active |  |  |  |  | 
8 | N[C@@H](Cc1ccc(O)c(O)c1)C(=O)O [LEVODOPA] | Not Active |  |  | Not Active | Not Active | Not Active | Not Active | Not Active |  |  |  |  | 
9 | N[C@@H](Cc1cc(I)c(Oc2ccc(O)c(I)c2)c(I)c1)C(=O)O [LIOTHYRONINE] | Not Active |  |  | Not Active | Not Active | Not Active |  | Not Active |  |  |  |  | 
10 | O=NN(CCCl)C(=O)NC1CCCCC1 [LOMUSTINE] | Not Active |  |  | Not Active | Not Active | Not Active | Not Active | Not Active |  |  |  |  | 
11 | CCOC(=O)N1CCC(=C2c3ccc(Cl)cc3CCc3cccnc32)CC1 [LORATADINE] | Not Active |  |  | Not Active | Not Active | Not Active | Not Active | Not Active |  |  |  |  | 
12 | Cn1ccnc1S [METHIMAZOLE] | Not Active |  |  | Not Active | Not Active | Not Active | Not Active | Not Active |  |  |  |  | 
13 | CC[C@@H](CO)NC(=O)[C@@H]1C=C2c3cccc4[nH]cc(c34)C[C@H]2N(C)C1 [METHYLERGONOVINE] | Not Active |  |  | Not Active | Not Active | Not Active | Not Active | Not Active |  |  |  |  | 
14 | COc1nc(C)nc(Cl)c1NC1=NCCN1 [MOXONIDINE] | Not Active |  |  | Not Active | Not Active | Not Active | Not Active | Not Active |  |  |  |  | 
15 | COc1c(C)c2c(c(O)c1C/C=C(\C)CCC(=O)O)C(=O)OC2 [MYCOPHENOLIC ACID] | Not Active |  |  | Not Active | Not Active | Not Active | Not Active | Not Active |  |  |  |  | 
16 | O=c1ncn2nc(Sc3ccc(F)cc3F)ccc2c1-c1c(Cl)cccc1Cl [NEFLAMAPIMOD] | Not Active | 8.1 µM | 6.43 µM | Not Active | Not Active | Not Active | Not Active |  |  |  |  |  | 
17 | CN1CCN(CCCN2c3ccccc3Sc3ccc(Cl)cc32)CC1 [PROCHLORPERAZINE] | Not Active |  |  | Not Active | Not Active | Not Active | Not Active |  |  |  |  |  | 
18 | CO[C@H]1/C=C/O[C@@]2(C)Oc3c(C)c(O)c4c(O)c(c(/C=N/N5CCN(C)CC5)c(O)c4c3C2=O)NC(=O)/C(C)=C\C=C\[C@H](C)[C@H](O)[C@@H](C)[C@@H](O)[C@@H](C)[C@H](OC(C)=O)[C@@H]1C [RIFAMPIN] | Not Active |  |  | Not Active | Not Active | Not Active | Not Active | Not Active |  |  |  |  | 
19 | Nc1nc2ccc(OC(F)(F)F)cc2s1 [RILUZOLE] | Not Active |  |  | Not Active | Not Active | Not Active | Not Active | Not Active |  |  |  |  | 

Row | Structure (SMILES) | IC50 [1] | IC50 ([2]; read-out: IC50) | Ki [2] | IC50 (Endothelin-1 receptor; cho-k1) | IC50 (Melanocortin receptor 4; hek293) | IC50 (Acetylcholinesterase; hek293) | IC50 (Estrogen receptor beta) | IC50 ([2]; cho-k1) | IC50 (Endothelin-1 receptor; read-out: IC50) | Ki (Endothelin-1 receptor; read-out: Ki) | IC50 (Melanocortin receptor 4; read-out: IC50) | Ki (Melanocortin receptor 4; read-out: Ki) | IC50 (Acetylcholinesterase; read-out: IC50)
20 | Cc1nc2n(c(=O)c1CCN1CCC(c3noc4cc(F)ccc34)CC1)CCCC2 [RISPERIDONE] | Not Active |  |  | Not Active | Not Active | Not Active |  | Not Active |  |  |  |  | 
21 | C=CCC1(C(C)CCC)C(=O)NC(=O)NC1=O (centres undefined) [SECOBARBITAL] | Not Active |  |  | Not Active | Not Active | Not Active | Not Active | Not Active |  |  |  |  | 
22 | C[C@@H]1CN(c2c(F)c(N)c3c(=O)c(C(=O)O)cn(C4CC4)c3c2F)C[C@H](C)N1 [SPARFLOXACIN] | Not Active |  |  | Not Active | Not Active | Not Active | Not Active | Not Active |  |  |  |  | 
23 | Cc1noc(NS(=O)(=O)c2ccc(N)cc2)c1C [SULFISOXAZOLE] | Not Active |  |  |  | Not Active | Not Active | Not Active | Not Active |  |  |  |  | 
24 | CSc1ccc(/C=C2/C(C)=C(CC(=O)O)c3cc(F)ccc32)cc1 [SULINDAC SULFIDE] | Not Active |  |  | Not Active | Not Active | Not Active | Not Active | Not Active |  |  |  |  | 
25 | Nc1c2c(nc3ccccc13)CCCC2 [TACRINE] | Not Active |  |  | Not Active | Not Active |  | Not Active | Not Active |  |  |  |  | 
26 | CC/C(=C(\c1ccccc1)c1ccc(OCCN(C)C)cc1)c1ccccc1 [TAMOXIFEN] | Not Active | 1.84 µM | 1.46 µM | Not Active |  | Not Active |  |  |  |  | 30.5 µM | 29.3 µM | 
27 | CC(C)N1CCN(c2ccc(OCC3COC(Cn4cncn4)(c4ccc(Cl)cc4Cl)O3)cc2)CC1 (centres undefined) [TERCONAZOLE] | Not Active |  |  | Not Active | Not Active |  | Not Active |  |  |  |  |  | 21.6 µM
28 | Nc1nc2nc[nH]c2c(=S)[nH]1 [THIOGUANINE] | Not Active |  |  | Not Active | Not Active | Not Active | Not Active | Not Active |  |  |  |  | 
29 | Cc1cccc(N(C)C(=S)Oc2ccc3ccccc3c2)c1 [TOLNAFTATE] | Not Active |  |  | Not Active | Not Active | Not Active | Not Active | Not Active |  |  |  |  | 
30 | NC[C@H]1CC[C@H](C(=O)O)CC1 [TRANEXAMIC ACID] | Not Active |  |  | Not Active | Not Active | Not Active | Not Active | Not Active |  |  |  |  | 
31 | CC1(C)O[C@@H]2C[C@H]3[C@@H]4CCC5=CC(=O)C=C[C@]5(C)[C@@]4(F)[C@@H](O)C[C@]3(C)[C@]2(C(=O)CO)O1 [TRIAMCINOLONE ACETONIDE] | Not Active |  |  | Not Active | Not Active | Not Active | Not Active | Not Active |  |  |  |  | 
32 | NS(=O)(=O)c1cc2c(cc1Cl)NC(C(Cl)Cl)NS2(=O)=O (centres undefined) [TRICHLORMETHIAZIDE] | Not Active |  |  | Not Active | Not Active | Not Active | Not Active | Not Active |  |  |  |  | 
33 | Cc1c(C)c2c(c(C)c1O)CCC(C)(COc1ccc(CC3SC(=O)NC3=O)cc1)O2 (centres undefined) [TROGLITAZONE] | Not Active |  |  | Not Active | Not Active | Not Active | Not Active | Not Active |  |  |  |  | 
34 | N[C@@H]1[C@H]2CN(c3nc4c(cc3F)c(=O)c(C(=O)O)cn4-c3ccc(F)cc3F)C[C@@H]12 [TROVAFLOXACIN] | Not Active | 62.2 µM | 49.4 µM | Not Active | Not Active | Not Active | Not Active |  |  |  |  |  | 
35 | N#CC(C#N)=Cc1ccc(O)c(O)c1 [TYRPHOSTIN 23] | Not Active |  |  | Not Active | Not Active | Not Active | Not Active | Not Active |  |  |  |  | 
36 | CC[C@]1(O)C[C@H]2CN(CCc3c([nH]c4ccccc34)[C@@](C(=O)OC)(c3cc4c(cc3OC)N(C=O)[C@H]3[C@@](O)(C(=O)OC)[C@H](OC(C)=O)[C@]5(CC)C=CCN6CC[C@]43[C@@H]65)C2)C1 [VINCRISTINE] | Not Active |  |  | Not Active | Not Active | Not Active |  | Not Active |  |  |  |  | 
37 | CCCOc1ccccc1-c1nc2nn[nH]c2c(=O)[nH]1 [ZAPRINAST] | Not Active |  |  | Not Active | Not Active | Not Active | Not Active | Not Active |  |  |  |  | 
